Among the data in patent US20240025919A1, “AZA-TETRACYCLIC OXAZEPINE COMPOUNDS AND USES THEREOF” (Genentech, Inc., priority 2022, published 2024) are IC50 values, retold here.

One assay concerns the target KRAS G12D (Homo sapiens (Human), UniProt P01116, G12D). Put plainly: KRAS G12D LoEnz Biochemical Assay, BODIPY-GDP Exchange TR-FRET (SOS1-mediated nucleotide exchange). The settings on record: read-out: KRas (G12D) GDP HTRF IC50. (In general: TR-FRET usually uses a lanthanide donor and a delayed reading to cut background.)
For a further assay, the target named is KRAS WT (Homo sapiens (Human), UniProt P01116). Put plainly: KRAS WT Biochemical Assay, BODIPY-GDP Exchange TR-FRET (Example 502; 0.06 nM KRAS WT, 15 nM GDP, 300 nM SOS1, 120-minute incubation). Particulars: read-out: KRas HTRF IC50. The essentials: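 IC50 from a 4-parameter Hill fit of percent inhibition, itself the TR-FRET 520/490 nm ratio scaled between DMSO and a fully inhibiting control. Reaction: 300 nM SOS1 and 300 nM BODIPY-GDP added to preformed 0.06 nM KRAS WT/15 nM GDP/Tb-streptavidin complex; 120 min incubation; pH 7.5 HEPES, MgCl2, DTT.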
Sequence of KRAS WT (P01116-2 other isoform, or with tags, fused parts or gaps): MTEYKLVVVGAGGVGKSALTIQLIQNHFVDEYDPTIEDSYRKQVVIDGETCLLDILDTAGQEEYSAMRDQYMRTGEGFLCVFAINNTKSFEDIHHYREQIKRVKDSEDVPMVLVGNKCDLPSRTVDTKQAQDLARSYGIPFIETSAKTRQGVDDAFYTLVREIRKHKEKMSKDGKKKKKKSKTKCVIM

pIC50: −log10 of the molar value.

Sequence of KRAS G12D (P01116-2 other isoform, or with tags, fused parts or gaps G12D): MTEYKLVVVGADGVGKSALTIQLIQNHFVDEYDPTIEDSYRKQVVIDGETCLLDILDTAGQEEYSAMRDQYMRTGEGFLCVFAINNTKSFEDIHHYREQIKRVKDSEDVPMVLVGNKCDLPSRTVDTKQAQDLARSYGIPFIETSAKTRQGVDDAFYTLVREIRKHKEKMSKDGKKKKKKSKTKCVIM

As usually defined, the pIC50 is the negative decadic logarithm of the IC50, by convention in mol/L. Regarding `Cc1c(F)c(N)cc(-c2nc3c4c(nc(OC[C@@H]5CC[C@H]6COCCN65)nc4c2F)N2C[C@H]4CC[C@H](N4)[C@H]2[C@H](C)O3)c1CC(F)(F)F` [Compound 113, 2-fluoro-5-((5S,5aS,6S,9R)-1-fluoro-12-(((6S,8aS)-hexahydro-1H-pyrrolo[2,1-c][1,4]oxazin-6-yl)methoxy)-5-methyl-5a,6,7,8,9,10-hexahydro-5H-4-oxa-3,10a,11,13,14-pentaaza-6,9-methanonaphtho[1,8-ab]heptalen-2-yl)-3-methyl-4-(2,2,2-trifluoroethyl)aniline], the negative logarithm of the IC50 (pIC50) was 9.51 on KRAS G12D and 7.18 at KRAS WT.
The like results for `C[C@@H]1Oc2nc(-c3cccc4ccc(N)nc34)c(F)c3nc(OC[C@@]45CCCN4C[C@H](F)C5)nc(c23)N2C[C@H]3CC[C@H](N3)[C@@H]12` [Compound 114, 8-((5S,5aS,6S,9R)-1-Fluoro-12-(((2R,7aS)-2-fluorotetrahydro-1H-pyrrolizin-7a(5H)-yl)methoxy)-5-methyl-5a,6,7,8,9,10-hexahydro-5H-4-oxa-3,10a,11,13,14-pentaaza-6,9-methanonaphtho[1,8-ab]heptalen-2-yl)quinolin-2-amine] were, in that order, 6.87 and 4.44.
As to `C[C@@H]1Oc2nc(-c3cc(N)cc(C(F)(F)F)c3C(F)(F)F)c(F)c3nc(OC[C@@]45CCCN4C[C@H](F)C5)nc(c23)N2C[C@H]3CC[C@H](N3)[C@@H]12` [Compound 115, 3-((5S,5aS,6S,9R)-1-fluoro-12-(((2R,7aS)-2-fluorotetrahydro-1H-pyrrolizin-7a(5H)-yl)methoxy)-5-methyl-5a,6,7,8,9,10-hexahydro-5H-4-oxa-3,10a,11,13,14-pentaaza-6,9-methanonaphtho[1,8-ab]heptalen-2-yl)-4,5-bis(trifluoromethyl)aniline], the negative logarithm of the IC50 (pIC50) at KRAS G12D was 9.41; at KRAS WT, 7.47.
Taken in the same sequence, the figures for `C[C@@H]1Oc2nc(-c3cccc4sc(N)nc34)c(F)c3nc(OC[C@@]45CCCN4C[C@H](F)C5)nc(c23)N2C[C@H]3CC[C@H](N3)[C@@H]12` [Compound 116, 4-((5S,5aS,6S,9R)-1-fluoro-12-(((2R,7aS)-2-fluorotetrahydro-1H-pyrrolizin-7a(5H)-yl)methoxy)-5-methyl-5a,6,7,8,9,10-hexahydro-5H-4-oxa-3,10a,11,13,14-pentaaza-6,9-methanonaphtho[1,8-ab]heptalen-2-yl)benzo[d]thiazol-2-amine] were 8.62 and 6.67.
Taken in the same sequence, the figures for `C[C@@H]1Oc2nc(-c3cc(N)ccc3C(C)(C)C)c(F)c3nc(OC[C@@]45CCCN4C[C@H](F)C5)nc(c23)N2C[C@H]3CC[C@H](N3)[C@@H]12` [Compound 117, 4-(tert-butyl)-3-((5S,5aS,6S,9R)-1-fluoro-12-(((2R,7aS)-2-fluorotetrahydro-1H-pyrrolizin-7a(5H)-yl)methoxy)-5-methyl-5a,6,7,8,9,10-hexahydro-5H-4-oxa-3,10a,11,13,14-pentaaza-6,9-methanonaphtho[1,8-ab]heptalen-2-yl)aniline] were 8.32 and 6.20.
Taken in the same sequence, the figures for `Cc1c(F)c(N)cc(-c2nc3c4c(nc(OCC5(CN6CCOCC6)CC5)nc4c2F)N2C[C@H]4CC[C@H](N4)[C@H]2[C@H](C)O3)c1C(F)(F)F` [Compound 118, 2-Fluoro-5-((5S,5aS,6S,9R)-1-fluoro-5-methyl-12-((1-(morpholinomethyl)cyclopropyl)methoxy)-5a,6,7,8,9,10-hexahydro-5H-4-oxa-3,10a,11,13,14-pentaaza-6,9-methanonaphtho[1,8-ab]heptalen-2-yl)-3-methyl-4-(trifluoromethyl)aniline] were 10.05 and 8.75.
As to `Cc1c(F)c(N)cc(-c2nc3c4c(nc(OC[C@@H]5CCC6C=C(F)CCN65)nc4c2F)N2C[C@H]4CC[C@H](N4)[C@H]2[C@H](C)O3)c1C(F)(F)F` (stereo partly drawn) [Compound 120, 2-fluoro-5-((5S,5aS,6S,9R)-1-fluoro-12-(((3S)-7-fluoro-1,2,3,5,6,8a-hexahydroindolizin-3-yl)methoxy)-5-methyl-5a,6,7,8,9,10-hexahydro-5H-4-oxa-3,10a,11,13,14-pentaaza-6,9-methanonaphtho[1,8-ab]heptalen-2-yl)-3-methyl-4-(trifluoromethyl)aniline], the values for the pIC50 on KRAS G12D and on KRAS WT were 9.62 and 7.35, respectively.
In the case of `Cc1c(F)c(N)cc(-c2nc3c4c(nc(OC[C@@]56CCC(C)N5C[C@H](F)C6)nc4c2F)N2C[C@H]4CC[C@H](N4)[C@H]2[C@H](C)O3)c1C(F)(F)F` (stereo partly drawn) [Compound 122, 2-fluoro-5-((5S,5aS,6S,9R)-1-fluoro-12-(((2R,7aS)-2-fluoro-5-methyltetrahydro-1H-pyrrolizin-7a(5H)-yl)methoxy)-5-methyl-5a,6,7,8,9,10-hexahydro-5H-4-oxa-3,10a,11,13,14-pentaaza-6,9-methanonaphtho[1,8-ab]heptalen-2-yl)-3-methyl-4-(trifluoromethyl)aniline], the values for the pIC50 on KRAS G12D and at KRAS WT were 9.96 and 8.43, respectively.
Turning to `Cc1c(F)c(N)cc(-c2nc3c4c(nc(OCC5CN(CC(F)F)C5)nc4c2F)N2C[C@H]4CC[C@H](N4)[C@H]2[C@H](C)O3)c1C(F)(F)F` [Compound 128, 5-((5S,5aS,6S,9R)-12-((1-(2,2-Difluoroethyl)azetidin-3-yl)methoxy)-1-fluoro-5-methyl-5a,6,7,8,9,10-hexahydro-5H-4-oxa-3,10a,11,13,14-pentaaza-6,9-methanonaphtho[1,8-ab]heptalen-2-yl)-2-fluoro-3-methyl-4-(trifluoromethyl)aniline], the pIC50 is 9.32 on KRAS G12D and 6.81 at KRAS WT.
The like results for `Cc1c(F)c(N)cc(-c2nc3c4c(nc(OCC5(CN6CCOC[C@H]6C)CC5)nc4c2F)N2C[C@H]4CC[C@H](N4)[C@H]2[C@H](C)O3)c1C(F)(F)F` [Compound 129, 2-Fluoro-5-((5S,5aS,6S,9R)-1-fluoro-5-methyl-12-((1-(((R)-3-methylmorpholino)methyl)cyclopropyl)methoxy)-5a,6,7,8,9,10-hexahydro-5H-4-oxa-3,10a,11,13,14-pentaaza-6,9-methanonaphtho[1,8-ab]heptalen-2-yl)-3-methyl-4-(trifluoromethyl)aniline] were, in that order, 9.74 and 8.41.
Turning to `Cc1c(F)c(N)cc(-c2nc3c4c(nc(OCC56COC(CN5C)C6)nc4c2F)N2C[C@H]4CC[C@H](N4)[C@H]2[C@H](C)O3)c1C(F)(F)F` [Compound 132, 2-Fluoro-5-((5S,5aS,6S,9R)-1-fluoro-5-methyl-12-((5-methyl-2-oxa-5-azabicyclo[2.2.1]heptan-4-yl)methoxy)-5a,6,7,8,9,10-hexahydro-5H-4-oxa-3,10a,11,13,14-pentaaza-6,9-methanonaphtho[1,8-ab]heptalen-2-yl)-3-methyl-4-(trifluoromethyl)aniline], the pIC50 at KRAS G12D was 8.83; at KRAS WT, 6.54.
The like results for `Cc1c(F)c(N)cc(-c2nc3c4c(nc(OC[C@@H]5CO[C@H]6CC[N@]5C6)nc4c2F)N2C[C@H]4CC[C@H](N4)[C@H]2[C@H](C)O3)c1C(F)(F)F` [Compound 135, 5-((5S,5aS,6S,9R)-12-(((1R,2S,5S)-4-Oxa-1-azabicyclo[3.2.1]octan-2-yl)methoxy)-1-fluoro-5-methyl-5a,6,7,8,9,10-hexahydro-5H-4-oxa-3,10a,11,13,14-pentaaza-6,9-methanonaphtho[1,8-ab]heptalen-2-yl)-2-fluoro-3-methyl-4-(trifluoromethyl)aniline] were, in that order, 9.15 and 6.84.
